Reference: patent US20240124465A1, “MOLECULES AND METHODS RELATED TO TREATMENT OF DISORDERS ASSOCIATED WITH JAK-2 SIGNALING DYSFUNCTION” (ST. JUDE CHILDREN'S RESEARCH HOSPITAL, priority 2020, published 2024)

How the values were obtained:
Assay type in all cases: cell-based
JAK1 = molecular target: T1, JAK1 (Homo sapiens, UniProt P23458); assay: Western blot assay, JAK1 protein degradation; conditions: MHH-CALL-4 cells, vehicle control = 100%
T1 construct: endogenous in cells; host or cells: MHH-CALL-4
Procedure: (§1) Western blot assay: MHH-CALL-4 Cells were washed twice with ice-cold PBS and lysed in RIPA lysis buffer (Sigma) freshly supplemented with Halt™ Protease Inhibitor Cocktail (ThermoFisher) for 15 minutes on ice. The cell pellet was removed by centrifugation at 13,000 g at 4° C. for 15 minutes. Protein concentration was measured by BCA assay (Thermo Fisher Scientific). Proteins were denatured in NuPAGE LDS 4× sample buffer supplemented with reducing agents (Invitrogen). Typically, 10-20 μg of total protein was loaded per lane on a 4%-12% NUPAGE Bis-Tris gradient gel (Invitrogen) and analyzed by standard immunoblotting and imaged using Li—COR Odyssey CLx (LI-COR Biotechnology, Lincoln, NE). To access the protein degradation, the signal of target protein was normalized by the signal of ACBT and the signal of vehicle control was set as 100%. Primary antibodies used were: JAK1 (Cell Signaling #3332S), JAK2 (#3230S), JAK3 (#8827S), TYK2 (#9312S), GSPT1 (#14980S), CRBN (#71810S), IKZF1 (Santa Cruz Biotechnology, SC-398265) and ACBT (Santa Cruz Biotechnology, SC-47778).

GSPT1 = molecular target: T2, GSPT1 (Homo sapiens, UniProt P15170); assay: Western blot assay, GSPT1 neosubstrate degradation; conditions: MHHCALL4; 100 nM, 24 h; MHH-CALL-4 cells; vehicle control = 100%
T2 construct: endogenous in cells; host or cells: MHH-CALL-4
Method in brief: (§2)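 Degradation is reported as remaining target protein, normalized to ACBT loading control with vehicle-treated cells as 100%. Lysates from MHH-CALL-4 cells were separated on gradient gels and probed by immunoblotting.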

JAK2 = assay: Western blot assay, JAK2 protein degradation; conditions: MHH-CALL-4 cells, vehicle control = 100%
Method in brief: as §2

MHH-CALL-4 cells = assay: Cytotoxicity assay (resazurin, 72 hours); set-up: AUC: unit not given beside the values; conditions: for EC50: MHHCALL4, resazurin; for AUC: area under the dose-response curve
Method in brief: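 Cells grown in RPMI1640 with 10% FBS, 2×10⁵ per well, were exposed to pin-transferred compounds in triplicate for 72 h at 37 °C, 5% CO2. Viability was read after 4 h resazurin incubation. Dose-response AUC was calculated per compound; selected data were fitted by non-linear regression.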

JAK3 = molecular target: T3, JAK3 (Homo sapiens, UniProt P52333); assay: Western blot assay, JAK3 protein degradation; conditions: MHHCALL4; 100 nM, 24 h; MHH-CALL-4 cells; vehicle control = 100%; read-out: Target Protein Degradation (% remaining at 100 nM, 24 h) JAK3
T3 construct: endogenous in cells; host or cells: MHH-CALL-4
T3 sequence (P52333 1-1124): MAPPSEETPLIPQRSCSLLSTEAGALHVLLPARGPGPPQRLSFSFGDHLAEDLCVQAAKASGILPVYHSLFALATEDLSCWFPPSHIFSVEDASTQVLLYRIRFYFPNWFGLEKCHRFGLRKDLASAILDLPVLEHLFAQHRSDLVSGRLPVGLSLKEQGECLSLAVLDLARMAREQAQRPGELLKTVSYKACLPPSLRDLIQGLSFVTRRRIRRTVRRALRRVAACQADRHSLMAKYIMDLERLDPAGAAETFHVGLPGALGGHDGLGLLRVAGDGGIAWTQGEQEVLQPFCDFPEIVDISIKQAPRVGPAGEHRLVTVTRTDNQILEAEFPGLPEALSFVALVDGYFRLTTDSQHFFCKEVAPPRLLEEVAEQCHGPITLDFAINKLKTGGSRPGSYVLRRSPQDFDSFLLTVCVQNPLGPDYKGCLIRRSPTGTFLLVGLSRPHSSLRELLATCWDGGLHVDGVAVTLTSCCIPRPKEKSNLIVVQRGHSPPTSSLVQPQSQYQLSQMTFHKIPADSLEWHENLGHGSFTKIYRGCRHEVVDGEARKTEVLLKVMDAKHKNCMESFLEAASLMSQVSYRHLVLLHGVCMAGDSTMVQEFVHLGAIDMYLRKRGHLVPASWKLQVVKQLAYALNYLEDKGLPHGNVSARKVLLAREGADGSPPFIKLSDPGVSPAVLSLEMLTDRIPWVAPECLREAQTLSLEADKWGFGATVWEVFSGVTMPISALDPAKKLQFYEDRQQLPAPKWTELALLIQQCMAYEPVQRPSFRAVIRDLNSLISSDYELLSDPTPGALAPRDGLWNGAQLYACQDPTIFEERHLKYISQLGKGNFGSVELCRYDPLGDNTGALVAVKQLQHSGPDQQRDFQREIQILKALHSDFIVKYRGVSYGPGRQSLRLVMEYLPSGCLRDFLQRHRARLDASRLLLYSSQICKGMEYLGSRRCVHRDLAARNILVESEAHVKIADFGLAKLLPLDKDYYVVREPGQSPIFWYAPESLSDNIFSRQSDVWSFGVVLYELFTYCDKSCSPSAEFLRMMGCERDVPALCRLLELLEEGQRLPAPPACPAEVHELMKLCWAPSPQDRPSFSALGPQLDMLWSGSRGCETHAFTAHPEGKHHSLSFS
Procedure: as §1

T1 sequence (P23458 whole entry): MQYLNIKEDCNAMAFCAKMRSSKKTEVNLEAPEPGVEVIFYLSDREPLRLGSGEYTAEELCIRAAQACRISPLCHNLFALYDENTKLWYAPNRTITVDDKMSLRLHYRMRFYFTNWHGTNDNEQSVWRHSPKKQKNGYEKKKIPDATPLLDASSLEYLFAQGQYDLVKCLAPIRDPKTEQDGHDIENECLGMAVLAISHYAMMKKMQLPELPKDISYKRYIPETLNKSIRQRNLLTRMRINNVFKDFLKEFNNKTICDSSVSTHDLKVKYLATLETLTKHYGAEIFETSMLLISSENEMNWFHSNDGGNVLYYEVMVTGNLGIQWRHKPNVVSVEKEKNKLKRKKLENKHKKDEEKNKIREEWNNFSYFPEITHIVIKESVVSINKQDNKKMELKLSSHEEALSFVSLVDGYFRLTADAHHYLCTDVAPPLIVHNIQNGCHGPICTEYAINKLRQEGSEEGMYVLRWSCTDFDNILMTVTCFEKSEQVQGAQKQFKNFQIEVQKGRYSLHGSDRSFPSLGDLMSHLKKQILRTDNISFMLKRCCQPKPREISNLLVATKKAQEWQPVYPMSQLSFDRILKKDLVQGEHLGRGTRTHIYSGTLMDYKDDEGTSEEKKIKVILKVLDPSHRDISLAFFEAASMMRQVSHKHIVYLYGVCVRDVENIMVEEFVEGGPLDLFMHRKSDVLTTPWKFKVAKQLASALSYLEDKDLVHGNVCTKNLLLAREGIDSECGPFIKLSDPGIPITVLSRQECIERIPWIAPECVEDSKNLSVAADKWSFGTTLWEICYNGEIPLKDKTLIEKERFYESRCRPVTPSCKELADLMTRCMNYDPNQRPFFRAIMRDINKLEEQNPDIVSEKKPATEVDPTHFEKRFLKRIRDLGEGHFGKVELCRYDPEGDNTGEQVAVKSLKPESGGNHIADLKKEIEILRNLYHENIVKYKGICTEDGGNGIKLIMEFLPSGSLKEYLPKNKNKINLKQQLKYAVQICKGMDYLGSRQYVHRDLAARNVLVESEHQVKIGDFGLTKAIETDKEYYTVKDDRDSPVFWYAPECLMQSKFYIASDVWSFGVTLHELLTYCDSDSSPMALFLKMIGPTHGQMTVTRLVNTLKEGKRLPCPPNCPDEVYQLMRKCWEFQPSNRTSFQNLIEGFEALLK
T2 sequence (P15170 whole entry): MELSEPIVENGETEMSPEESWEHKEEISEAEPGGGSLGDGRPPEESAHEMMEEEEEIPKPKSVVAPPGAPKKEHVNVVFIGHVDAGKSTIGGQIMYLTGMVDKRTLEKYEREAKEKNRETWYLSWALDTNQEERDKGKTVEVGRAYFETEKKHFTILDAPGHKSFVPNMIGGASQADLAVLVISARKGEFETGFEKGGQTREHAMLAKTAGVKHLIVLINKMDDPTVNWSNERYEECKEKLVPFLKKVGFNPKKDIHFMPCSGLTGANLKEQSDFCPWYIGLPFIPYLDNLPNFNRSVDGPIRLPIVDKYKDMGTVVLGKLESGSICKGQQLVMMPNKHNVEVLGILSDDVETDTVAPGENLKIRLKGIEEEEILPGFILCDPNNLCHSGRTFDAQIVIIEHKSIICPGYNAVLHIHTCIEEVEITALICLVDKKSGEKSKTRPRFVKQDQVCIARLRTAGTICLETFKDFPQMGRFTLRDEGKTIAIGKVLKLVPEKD

Compound	Target Protein Degradation (% remaining at 100 nM, 24 h) JAK1 (JAK1)	remaining activity at 0.1 µM (GSPT1)	Target Protein Degradation (% remaining at 100 nM, 24 h) JAK2 (JAK2)	EC50 (MHH-CALL-4 cells)	AUC (MHH-CALL-4 cells)	remaining activity at 0.1 µM (JAK3)
CCS(=O)(=O)N1CC(CC#N)(n2cc(-c3nc(Nc4ccc(C(=O)NCCCCNc5cccc(C6CCC(=O)NC6=O)c5)cc4)nc4[nH]ccc34)cn2)C1 (centres unmarked) [Compound 4]	17 % remaining	124%	30 % remaining	2.1 nM	120	44%
CCS(=O)(=O)C1CC(CC#N)(n2cc(-c3nc(Nc4ccc(C(=O)NC5CCN(c6cccc7c6C(=O)N(C6CCC(=O)NC6=O)C7=O)CC5)cc4)nc4[nH]ccc34)cn2)C1 (centres unmarked) [Compound 30]	105 % remaining	140%	88 % remaining	0.3 nM	215.00	77%
CCS(=O)(=O)N1CC(CC#N)(n2cc(-c3nc(Nc4ccc(C(=O)NCCCN5CCC(c6ccc7c(c6)CN(C6CCC(=O)NC6=O)C7=O)CC5)cc4)nc4[nH]ccc34)cn2)C1 (centres unmarked) [Compound 28]	112 % remaining	127%	83 % remaining	16.8 nM	223.00	97%
CCS(=O)(=O)N1CC(CC#N)(n2cc(-c3nc(Nc4ccc(C(=O)NCCCCN5CCN(c6ccc(C7CCC(=O)NC7=O)cc6)CC5)cc4)nc4[nH]ccc34)cn2)C1 (centres unmarked) [Compound 19]	87 % remaining	129%	34 % remaining	1450 nM	225	112%
CCS(=O)(=O)C1CC(CC#N)(n2cc(-c3nc(Nc4ccc(C(=O)NC5CCN(c6ccc7c(c6)C(=O)N(C6CCC(=O)NC6=O)C7=O)CC5)cc4)nc4[nH]ccc34)cn2)C1 (centres unmarked) [Compound 29]	64 % remaining	51%	14 % remaining	4.3 nM	262	62%
CCS(=O)(=O)N1CC(CC#N)(n2cc(-c3nc(Nc4ccc(C(=O)NCCC5CCN(c6ccc7c(c6)C(=O)N(C6CCC(=O)NC6=O)C7=O)CC5)cc4)nc4[nH]ccc34)cn2)C1 (centres unmarked) [Compound 32]	69 % remaining	46%	21 % remaining	1.3 nM	251	56%
CCS(=O)(=O)N1CC(CC#N)(n2cc(-c3nc(Nc4ccc(C(=O)NCCOCCOc5ccc(C6CCC(=O)NC6=O)cc5)cc4)nc4[nH]ccc34)cn2)C1 (centres unmarked) [Compound 11]	110 % remaining	130%	90 % remaining	> 10000 nM	–	70%
CCS(=O)(=O)N1CC(CC#N)(n2cc(-c3nc(Nc4ccc(C(=O)NCCCCCCNc5cccc(C6CCC(=O)NC6=O)c5)cc4)nc4[nH]ccc34)cn2)C1 (centres unmarked) [Compound 3]	94 % remaining	84%	56 % remaining	1.7 nM	248	79%
CCS(=O)(=O)N1CC(CC#N)(n2cc(-c3nc(Nc4ccc(C(=O)NCCCNC(=O)COc5cccc(C6CCC(=O)NC6=O)c5)cc4)nc4[nH]ccc34)cn2)C1 (centres unmarked) [Compound 33]	83 % remaining	89%	74 % remaining	0.7 nM	185	71%
CCS(=O)(=O)C1CC(CC#N)(n2cc(-c3nc(Nc4ccc(C(=O)N5CCC(c6ccc7c(c6)C(=O)N(C6CCC(=O)NC6=O)C7=O)CC5)cc4)nc4[nH]ccc34)cn2)C1 (centres unmarked) [Compound 27]	107 % remaining	118%	68 % remaining	289 nM	143	92%
CCS(=O)(=O)N1CC(CC#N)(n2cc(-c3nc(Nc4ccc(C(=O)NCCCCCNc5ccc(C6CCC(=O)NC6=O)cc5)cc4)nc4[nH]ccc34)cn2)C1 (centres unmarked) [Compound 7]	78 % remaining	63%	29 % remaining	13.9 nM	248	50%
CCS(=O)(=O)N1CC(CC#N)(n2cc(-c3nc(Nc4ccc(C(=O)NCCCN5CCN(c6cccc(C7CCC(=O)NC7=O)c6)CC5)cc4)nc4[nH]ccc34)cn2)C1 (centres unmarked) [Compound 42, 4-((4-(1-(3-(cyanomethyl)-1-(ethylsulfonyl)azetidin-3-yl)-1H-pyrazol-4-yl)-7H-pyrrolo[2,3-d]pyrimidin-2-yl)amino)-N-(3-(4-(3-(2,6-dioxopiperidin-3-yl)phenyl)piperazin-1-yl)propyl)benzamide]	128 % remaining	76%	48 % remaining	836 nM	139	71%
